Laboratory results from patent publication US20200121695A1, “COMPOSITIONS AND METHODS FOR TREATING ITCH, SKIN INFLAMMATION, AND PRURITUS” (priority 2017, published 2020).

Assay: Case report: with menstrual-cycle itching, elevated ALP and PBC/AIH overlap syndrome
Assay type: in vivo, human
Settings: person, Ursodiol 300 mg three times a day plus mycophenolate mofetil 500 mg four times a day for 1 year, together with replacement of Nuva Ring by copper IUD and dietary changes
Excerpt: The itching was predominantly concentrated on hands, feet, back, and stomach area, and the symptoms disappeared as soon as menstruation began. They previously used Nuva Ring for about three years, followed by approximately 5.5 year hiatus. The medical history and gynecological clinical examination were not unusual, with the exception of elevated liver enzymes having been discovered about two years prior to visit. […] The initial treatment thus comprised short-term moderate amounts of Prednisone, with the regiment starting about the time of re-start of the Nuva Ring use. Approximately two months after the start of Prednisone regimen the patient was diagnosed with an overlap syndrome of Primary Biliary Cholangitis/Cirrhosis (PBC) and Autoimmune Hepatitis (AIH). […] New treatment regimen was implemented. Nuva Ring was replaced with a non-hormonal intrauterine device (copper) to enable treatment with immunosuppressive drugs. Additionally steroid drugs, Ursodiol (300 mg three times a day) and mycophenolate mofetil (Cellcept, 500 mg, four times a day), regimen was started in order to reduce AST levels, and continued for 1 year. Finally dietary changes eliminating foods that are rich in zinc and vitamin B12 were effected.

Row | Structure (SMILES) | itching symptoms at the time of menstruation
1 | C[C@H](CCC(=O)O)[C@H]1CC[C@H]2[C@@H]3[C@@H](O)C[C@@H]4C[C@H](O)CC[C@]4(C)[C@H]3CC[C@]12C [Ursodiol] | significant reduction of the itching symptoms
2 | COc1c(C)c2c(c(O)c1C/C=C(\C)CCC(=O)OCCN1CCOCC1)C(=O)OC2 [mycophenolate mofetil] | significant reduction of the itching symptoms
